From US8466188B2, “Use of spiro-oxindole compounds as therapeutic agents” (Xenon Pharmaceuticals Inc., priority 2006, dated 2013)

tested on: sodium channel; experiment: Guanidine influx assay (14C-guanidine radiotracer flux) in a known cell line that expresses a sodium channel; type: cell-based, human or rat
Excerpt: This example describes an in vitro assay for testing and profiling test agents against human or rat sodium channels stably expressed in cells of either an endogenous or recombinant origin.
The guanidine influx assay is a radiotracer flux assay used to determine ion flux activity of sodium channels in a high-throughput microplate-based format. The assay uses ^14C-guanidine hydrochloride in combination with various known sodium channel modulators, to assay the potency of test agents. Potency is determined by an IC50 calculation. Selectivity is determined by comparing potency of the compound for the channel of interest to its potency against other sodium channels (also called ‘selectivity profiling’).
Each of the test agents is assayed against cells that express the sodium channel of interest. Voltage gated sodium channels are either TTX sensitive or insensitive. This property is useful when evaluating the activities of a channel of interest when it resides in a mixed population with other sodium channels. The following Table 1 lists certain cell lines which are useful in screening for a certain sodium channel activity in the presence or absence of TTX.
It is also possible to employ recombinant cells expressing these sodium channels.
Cells expressing the channel of interest are grown according to the supplier or in the case of a recombinant cell in the presence of selective growth media such as G418 (Gibco/Invitrogen). The cells are disassociated from the culture dishes with an enzymatic solution (1×) Trypsin/EDTA (Gibco/Invitrogen) and analyzed for density and viability using haemocytometer (Neubauer). Disassociated cells are washed and resuspended in their culture media then plated into Scintiplates (Beckman Coulter Inc.) (approximately 100,000 cells/well) and incubated at 37° C./5% CO2 for 20-24 hours. After an extensive wash with Low sodium HEPES-buffered saline solution (LNHBSS) (150 mM Choline Chloride, […] (Sigma), 1 mM Calcium Chloride, 5 mM Potassium Chloride, 1 mM Magnesium Chloride, 10 mM Glucose) agents diluted with LNHBSS are added to each well. (Varying concentrations of test agent may be used). The activation/radiolabel mixture contains aconitine (Sigma), and ^14C-guanidine hydrochloride (ARC).
After loading the cells with test agent and activation/radiolabel mixture, the Scintiplates are incubated at ambient temperature. Following the incubation, the Scintplates are extensively washed with LNHBSS supplemented with guanidine (Sigma). The Scintiplates are dried and then counted using a Wallac MicroBeta TriLux (Perkin-Elmer Life Sciences). The ability of the test agent to block sodium channel activity is determined by comparing the amount of ^14C-guanidine present inside the cells expressing the different sodium channels.
IC50 value of a test agent for a specific sodium channel may be determined using the above general method. […] The IC50 curve is calculated using the 4 Parameter Logistic Model or Sigmoidal Dose-Response Model formula (fit=(A+((B−A)/(1+((C/x)^D)))).
The fold selectivity, factor of selectivity or multiple of selectivity, is calculated by dividing the IC50 value of the test sodium channel by the reference sodium channel, for example, Nav1.5.
The Example numbers provided in Table 2 correspond to the Example numbers herein: […]

| SMILES | IC50 |
| --- | --- |
| O=C(O)CN1C(=O)C2(COc3cc4c(cc32)OCO4)c2ccccc21 (centres unmarked) [Example 2, (2′-oxospiro[furo[2,3-f][1,3]benzodioxole-7,3′-indol]-1′(2′H)-yl)acetic acid] | > 1 µM |
| O=C(CN1C(=O)C2(COc3cc4c(cc32)OCO4)c2ccccc21)NCc1ccc(Cl)cc1 (centres unmarked) [Example 3, N-(4-chlorobenzyl)-2-(2′-oxospiro[furo[2,3-f][1,3]benzodioxole-7,3′-indol]-1′(2′H)-yl)acetamide] | 0.1 to 1 µM |
| CCCCCN1C(=O)C2(COc3cc4c(cc32)OCO4)c2c(-c3ccc(N(C)C)nc3)cccc21 (centres unmarked) [Example 4, 4′-[6-(dimethylamino)pyridin-3-yl]-1′-pentylspiro[furo[2,3-f][1,3]benzodioxole-7,3′-indol]-2′(1′H)one] | 0.1 to 1 µM |
| CCCCCN1C(=O)C2(COc3cc4c(cc32)OCO4)c2c(Nc3ccc(OC)nc3)cccc21 (centres unmarked) [Example 5, 4′-[(6-methoxypyridin-3-yl)amino]-1′-pentylspiro[furo[2,3-f][1,3]benzodioxole-7,3′-indol]-2′(1′H)-one] | 0.1 to 1 µM |
| O=C(O)c1ccccc1CN1C(=O)C2(COc3cc4c(cc32)OCO4)c2ccccc21 (centres unmarked) [Example 6, 2-[(2′-oxospiro[furo[2,3-f][1,3]benzodioxole-7,3′-indol]-1′(2′H)-yl)methyl]benzoic acid] | > 1 µM |
| O=C(NCCc1ccc(Cl)cc1)c1ccccc1CN1C(=O)C2(COc3cc4c(cc32)OCO4)c2ccccc21 (centres unmarked) [Example 7, N-[2-(4-chlorophenyl)ethyl]-2-[(2′-oxospiro[furo[2,3-f][1,3]benzodioxole-7,3′-indol]-1′(2′H)-yl)methyl]benzamide] | 0.1 to 1 µM |
| O=C(O)c1cccc(CN2C(=O)C3(COc4cc5c(cc43)OCO5)c3ccccc32)c1 (centres unmarked) [Example 8, 3-[(2′-oxospiro[furo[2,3-f][1,3]benzodioxole-7,3′-indol]-1′(2′H)-yl)methyl]benzoic acid] | 0.1 to 1 µM |
| O=C(NCCc1cccc(Cl)c1)c1cccc(CN2C(=O)C3(COc4cc5c(cc43)OCO5)c3ccccc32)c1 (centres unmarked) [Example 9, N-[2-(3-chlorophenyl)ethyl]-3-[(2′-oxospiro[furo[2,3-f][1,3]benzodioxole-7,3′-indol]-1′(2′H)-yl)methyl]benzamide] | 0.1 to 1 µM |
| O=C1N(Cc2ccc(F)cc2)c2ccccc2C12COc1cc3c(cc12)OCO3 (centres unmarked) [Example 10, 1′-(4-fluorobenzyl)spiro[furo[2,3-f][1,3]benzodioxole-7,3′-indol]-2′(1′H)-one] | 0.01 to 0.1 µM |
| O=C(O)c1ccc(CN2C(=O)C3(COc4cc5c(cc43)OCO5)c3ccccc32)cc1 (centres unmarked) [Example 11, 4-[(2′-oxospiro[furo[2,3-f][1,3]benzodioxole-7,3′-indol]-1′(2′H)-yl)methyl]benzoic acid] | > 1 µM |

tested on: not given; experiment: not given

| SMILES | melting point |
| --- | --- |
| O=C1N(Cc2ccc(C(F)(F)F)o2)c2ccccc2C12COc1cc3c(cc12)OCC3 (centres unmarked) [Example 10.71, 1′-{[5-(trifluoromethyl)-2-furyl]methyl}-6,7-dihydrospiro[benzo[1,2-b:4,5-b′]difuran-3,3′-indol]-2′(1′H)-one] | 174 to 177 °C |
| O=C1N(Cc2ccc(C(F)(F)F)s2)c2ccccc2C12COc1cc3c(cc12)OCO3 (centres unmarked) [Example 10.73, 1′-{[5-(trifluoromethyl)-2-thienyl]methyl}spiro[furo[2,3-f][1,3]benzodioxole-7,3′-indol]-2′(1′H)-one] | 127 to 130 °C |
| COc1cc(C(F)(F)F)sc1CN1C(=O)C2(COc3cc4c(cc32)OCO4)c2ccccc21 (centres unmarked) [Example 10.74, 1′-{[3-methoxy-5-(trifluoromethyl)-2-thienyl]methyl}spiro[furo[2,3-f][1,3]benzodioxole-7,3′-indol]-2′(1′H)-one] | 178 to 180 °C |
| Cc1cccc2c1C1(COc3cc4c(cc31)OCO4)C(=O)N2Cc1ccc(C(F)(F)F)o1 (centres unmarked) [Example 10.75, 4′-methyl-1′-{[5-(trifluoromethyl)-2-furyl]methyl}spiro[furo[2,3-f][1,3]benzodioxole-7,3′-indol]-2′(1′H)-one] | 117 to 119 °C |
| Cc1ccc2c(c1)C1(COc3cc4c(cc31)OCO4)C(=O)N2Cc1ccc(C(F)(F)F)o1 (centres unmarked) [Example 10.76, 5′-methyl-1′-{[5-(trifluoromethyl)-2-furyl]methyl}spiro[furo[2,3-f][1,3]benzodioxole-7,3′-indol]-2′(1′H)-one] | 96 to 98 °C |
| N#Cc1ccc(CN2C(=O)C3(COc4cc5c(cc43)OCO5)c3ccccc32)o1 (centres unmarked) [Example 10.80, 5-[(2′-oxospiro[furo[2,3-f][1,3]benzodioxole-7,3′-indol]-1′(2′H)-yl)methyl]-2-furonitrile] | 167 to 169 °C |
| CS(=O)(=O)c1ccc(CN2C(=O)C3(COc4cc5c(cc43)OCO5)c3ccccc32)o1 (centres unmarked) [Example 10.81, 1′-{[5-(methylsulfonyl)-2-furyl]methyl}spiro[furo[2,3-f][1,3]benzodioxole-7,3′-indol]-2′(1′H)-one] | 177 to 179 °C |
| O=C1N(Cc2ccc(=O)[nH]c2)c2ccccc2C12COc1cc3c(cc12)OCO3 (centres unmarked) [Example 10.82, 1′-[(6-oxo-1,6-dihydropyridin-3-yl)methyl]spiro[furo[2,3-f][1,3]benzodioxole-7,3′-indol]-2′(1′H)-one] | 247 to 250 °C |
| Cn1cc(CN2C(=O)C3(COc4cc5c(cc43)OCO5)c3ccccc32)ccc1=O (centres unmarked) [Example 10.83, 1′-[(1-methyl-6-oxo-1,6-dihydropyridin-3-yl)methyl]spiro[furo[2,3-f][1,3]benzodioxole-7,3′-indol]-2′(1′H)-one] | 115 to 118 °C |
| O=C1N(Cc2nnc(Cl)s2)c2ccccc2C12COc1cc3c(cc12)OCO3 (centres unmarked) [Example 10.85, 1′-[(5-chloro-1,3,4-thiadiazol-2-yl)methyl]spiro[furo[2,3-f][1,3]benzodioxole-7,3′-indol]-2′(1′H)-one] | 194 to 197 °C |
| O=C1N(CC2CCN(c3ccccn3)CC2)c2ccccc2C12COc1cc3c(cc12)OCO3 (centres unmarked) [Example 10.86, 1′-[(1-pyridin-2-ylpiperidin-4-yl)methyl]spiro[furo[2,3-f][1,3]benzodioxole-7,3′-indol]-2′(1′H)-one] | 95 to 97 °C |
| O=C1N(Cc2ccc(C(F)(F)F)o2)c2ccccc2C12COc1cc(OC(F)(F)F)ccc12 (centres unmarked) [Example 10.90, 6-(trifluoromethoxy)-1′-{[5-(trifluoromethyl)-2-furyl]methyl}spiro[1-benzofuran-3,3′-indol]-2′(1′H)-one] | 78 to 80 °C |
| COc1ccc(CN2C(=O)C3(COc4cc(OC(F)(F)F)ccc43)c3ccccc32)cc1 (centres unmarked) [Example 10.91, 1′-(4-methoxybenzyl)-6-(trifluoromethoxy)spiro[1-benzofuran-3,3′-indol]-2′(1′H)-one] | 82 to 84 °C |
| O=C1N(CC2CCCCC2)c2ccccc2C12COc1cc3c(cc12)OCO3 (centres unmarked) [Example 10.92, 1′-(cyclohexylmethyl)spiro[furo[2,3-f][1,3]benzodioxole-7,3′-indol]-2′(1′H)-one] | 153 to 154 °C |
| CS(=O)(=O)N1C(=O)C2(COc3cc4c(cc32)OCO4)c2ccccc21 (centres unmarked) [Example 10.93, 1′-(methylsulfonyl)spiro[furo[2,3-f][1,3]benzodioxole-7,3′-indol]-2′(1′H)-one] | 215 to 217 °C |
| CC(C)(C)OC(=O)N1CCC(CCN2C(=O)C3(COc4cc5c(cc43)OCO5)c3ccccc32)CC1 (centres unmarked) [Example 10.96, tert-butyl 4-[2-(2′-oxospiro[furo[2,3-f][1,3]benzodioxole-7,3′-indol]-1′(2′H)-yl)ethyl]piperidine-1-carboxylate] | 173 to 175 °C |
| CCCCCN1C(=O)C2(COc3cc4c(cc32)OCO4)c2c(C(=O)Nc3cccc(OC)c3)cccc21 (centres unmarked) [Example 29.1, N-(3-methoxyphenyl)-2′-oxo-1′-pentyl-1′,2′-dihydrospiro[furo[2,3-f][1,3]benzodioxole-7,3′-indole]-4′-carboxamide] | 173 to 175 °C |
| O=C1N(Cc2nc3cc(F)ccc3[nH]2)c2ccccc2C12COc1cc3c(cc12)OCO3 (centres unmarked) [Example 53, 1′-[(5-fluoro-1H-benzimidazol-2-yl)methyl]spiro[furo[2,3-f][1,3]benzodioxole-7,3′-indol]-2′(1′H)-one] | 138 to 142 °C |
| COc1ccc2c(c1)C1(CO2)C(=O)N(C)c2ccccc21 (centres unmarked) [Example 58, 5-methoxy-1′-methylspiro[1-benzofuran-3,3′-indol]-2′(1′H)one] | 159 to 161 °C |
